Measured values taken from ChEMBL document CHEMBL1144985, “Rational design, synthesis and structure-activity relationships of a cyclic succinate series of TNF-alpha converting enzyme inhibitors. Part 2: lead optimization” (Bioorg Med Chem Lett, 2003).
≈ marks a conversion by molar mass, not a printed value.

What was measured:
[1] = Solubility was determined
Homo sapiens = species on record: Homo sapiens; assay: In vitro inhibition of TNF-alpha production was determined by using LPS-stimulated human whole blood assay (WBA); assay type: functional
[2] = target: Matrix metalloproteinase-9 (Homo sapiens, UniProt P14780); assay: Inhibitory activity against matrix metalloprotease-9 (MMP-9)
Matrix metalloproteinase-9, sequence (P14780 whole entry): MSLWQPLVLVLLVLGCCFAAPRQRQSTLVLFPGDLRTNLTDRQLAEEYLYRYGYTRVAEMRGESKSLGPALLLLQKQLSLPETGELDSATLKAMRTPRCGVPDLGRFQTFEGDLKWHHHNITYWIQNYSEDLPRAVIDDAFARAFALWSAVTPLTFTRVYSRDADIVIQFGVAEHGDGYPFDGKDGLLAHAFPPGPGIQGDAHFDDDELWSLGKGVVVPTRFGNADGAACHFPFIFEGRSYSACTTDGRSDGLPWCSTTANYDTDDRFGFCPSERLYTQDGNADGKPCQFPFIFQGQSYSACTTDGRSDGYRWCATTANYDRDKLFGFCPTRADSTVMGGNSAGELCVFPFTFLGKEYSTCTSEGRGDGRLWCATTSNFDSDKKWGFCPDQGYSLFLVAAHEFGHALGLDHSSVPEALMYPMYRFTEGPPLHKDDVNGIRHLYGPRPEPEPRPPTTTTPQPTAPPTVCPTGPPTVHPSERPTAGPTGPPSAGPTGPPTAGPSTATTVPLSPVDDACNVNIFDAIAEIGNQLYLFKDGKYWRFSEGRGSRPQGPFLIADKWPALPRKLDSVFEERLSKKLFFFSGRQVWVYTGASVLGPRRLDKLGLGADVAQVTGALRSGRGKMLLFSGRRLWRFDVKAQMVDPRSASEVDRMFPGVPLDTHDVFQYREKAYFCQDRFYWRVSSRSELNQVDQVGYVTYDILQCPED

[3] = target: 72 kDa type IV collagenase (Homo sapiens, UniProt P08253); assay: Inhibitory activity against matrix metalloprotease-2 (MMP-2)
72 kDa type IV collagenase, sequence (P08253 whole entry): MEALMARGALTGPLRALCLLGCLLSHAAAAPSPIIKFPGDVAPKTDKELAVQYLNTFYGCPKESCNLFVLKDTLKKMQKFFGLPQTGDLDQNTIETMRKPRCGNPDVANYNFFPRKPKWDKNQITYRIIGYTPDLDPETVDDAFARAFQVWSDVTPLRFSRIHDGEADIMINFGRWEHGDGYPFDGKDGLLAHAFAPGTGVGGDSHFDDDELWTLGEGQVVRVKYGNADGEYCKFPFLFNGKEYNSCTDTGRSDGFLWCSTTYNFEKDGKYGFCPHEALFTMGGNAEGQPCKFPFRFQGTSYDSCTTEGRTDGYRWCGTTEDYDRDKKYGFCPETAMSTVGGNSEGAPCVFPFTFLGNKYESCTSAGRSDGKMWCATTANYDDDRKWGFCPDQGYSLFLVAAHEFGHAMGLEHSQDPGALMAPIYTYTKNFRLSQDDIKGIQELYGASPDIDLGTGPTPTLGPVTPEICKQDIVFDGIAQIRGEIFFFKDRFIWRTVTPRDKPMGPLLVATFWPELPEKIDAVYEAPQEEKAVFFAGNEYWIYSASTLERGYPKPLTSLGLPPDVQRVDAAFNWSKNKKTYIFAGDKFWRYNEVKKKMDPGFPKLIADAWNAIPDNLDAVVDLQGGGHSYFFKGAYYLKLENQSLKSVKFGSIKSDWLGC

Interstitial collagenase = target: T1, Interstitial collagenase (Homo sapiens, UniProt P03956); assay: Inhibitory activity against matrix metalloprotease-1 (MMP-1)
T1 sequence (P03956 whole entry): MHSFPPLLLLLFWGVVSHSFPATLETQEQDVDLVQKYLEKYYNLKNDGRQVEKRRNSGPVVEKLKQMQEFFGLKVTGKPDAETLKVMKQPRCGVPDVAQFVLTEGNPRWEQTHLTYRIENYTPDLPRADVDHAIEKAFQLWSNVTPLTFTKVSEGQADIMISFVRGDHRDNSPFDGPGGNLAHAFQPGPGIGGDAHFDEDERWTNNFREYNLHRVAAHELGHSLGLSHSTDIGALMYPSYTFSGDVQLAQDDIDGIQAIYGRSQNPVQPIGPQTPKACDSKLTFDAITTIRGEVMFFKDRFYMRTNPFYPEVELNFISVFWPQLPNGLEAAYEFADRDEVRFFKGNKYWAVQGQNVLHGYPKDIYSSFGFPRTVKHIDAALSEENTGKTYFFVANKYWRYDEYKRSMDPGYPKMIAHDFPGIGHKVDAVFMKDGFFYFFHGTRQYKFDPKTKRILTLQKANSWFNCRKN

[4] = target: Disintegrin and metalloproteinase domain-containing protein 17 (Sus scrofa, UniProt O77636); assay: In vitro binding affinity against porcine TACE
Disintegrin and metalloproteinase domain-containing protein 17, sequence (O77636 whole entry, the tested form may be a part): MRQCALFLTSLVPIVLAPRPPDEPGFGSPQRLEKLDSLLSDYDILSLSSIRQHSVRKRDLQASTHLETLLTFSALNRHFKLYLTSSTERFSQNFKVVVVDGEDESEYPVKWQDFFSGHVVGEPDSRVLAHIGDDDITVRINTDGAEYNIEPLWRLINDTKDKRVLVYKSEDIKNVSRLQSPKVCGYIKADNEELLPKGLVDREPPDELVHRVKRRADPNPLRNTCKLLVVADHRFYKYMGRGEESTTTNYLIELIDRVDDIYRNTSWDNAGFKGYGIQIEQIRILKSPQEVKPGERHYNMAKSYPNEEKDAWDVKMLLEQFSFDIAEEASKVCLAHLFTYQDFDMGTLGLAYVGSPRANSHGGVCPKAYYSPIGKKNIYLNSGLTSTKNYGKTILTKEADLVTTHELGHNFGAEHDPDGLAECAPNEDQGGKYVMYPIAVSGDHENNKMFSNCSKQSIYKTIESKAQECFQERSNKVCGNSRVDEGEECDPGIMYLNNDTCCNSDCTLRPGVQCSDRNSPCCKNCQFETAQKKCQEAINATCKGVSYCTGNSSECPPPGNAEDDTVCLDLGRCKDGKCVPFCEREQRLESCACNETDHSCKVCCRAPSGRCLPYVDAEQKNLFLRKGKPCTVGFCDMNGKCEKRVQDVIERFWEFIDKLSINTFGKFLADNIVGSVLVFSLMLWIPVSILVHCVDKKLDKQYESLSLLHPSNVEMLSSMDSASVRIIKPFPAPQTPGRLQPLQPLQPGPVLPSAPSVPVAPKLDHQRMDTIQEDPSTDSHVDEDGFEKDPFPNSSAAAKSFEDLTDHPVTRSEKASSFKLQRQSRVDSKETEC

Caco-2 = settings: Homo sapiens
Description: Caco-2 permeability was determined

| solubility [1] [µg/mL] | IC50 (Homo sapiens) [nM] | Ki [2] [nM] | Ki [3] [nM] | Ki (Interstitial collagenase) [nM] | IC50 [4] [nM] | Structure (SMILES) | Papp (Caco-2) |
| --- | --- | --- | --- | --- | --- | --- | --- |
|  | > 50000 | > 2130 | > 3330 | > 4950 | > 1000 | O=C(NO)[C@H]1CN(C(=O)C2CC2)CC[C@@H]1C(=O)Nc1ccc(Oc2ccnc3ccccc23)cc1 |  |
|  | 210 | 252 | 771 | > 4950 | 0.44 | Cc1cc(COc2ccc(NC(=O)[C@H]3CCN(C(=O)OC(C)C)C[C@@H]3C(=O)NO)cc2)c2ccccc2n1 |  |
|  | 560 | > 2130 | > 3330 | > 4950 | 0.41 | Cc1cc(COc2ccc(NC(=O)[C@H]3CCN(C(=O)NC(C)(C)C)C[C@@H]3C(=O)NO)cc2)c2ccccc2n1 |  |
| > 10000 | 100 | > 2130 | > 3330 | > 4950 | 8 | CCN1CCC[C@H](C(=O)NO)[C@H]1C(=O)Nc1ccc(OCc2cc(C)nc3ccccc23)cc1 |  |
| 30 (≈ 59.5 µM) | 270 | > 2130 | > 3330 | > 4950 | 0.22 | Cc1cc(COc2ccc(NC(=O)[C@H]3CCN(C(=O)C(C)C)C[C@@H]3C(=O)NO)cc2)c2ccccc2n1 | 0.3 10e-6 cm s-1 |
| > 10000 | 530 | > 2130 | > 3330 | > 4950 | 3 | Cc1cc(COc2ccc(NC(=O)[C@H]3CNCC[C@@H]3C(=O)NO)cc2)c2ccccc2n1 |  |
|  | 1400 | > 2130 | > 3330 | > 4950 | 1 | Cc1cc(COc2ccc(NC(=O)[C@@H]3[C@@H](C(=O)NO)CCCN3Cc3nccs3)cc2)c2ccccc2n1 |  |
| > 10000 | 300 | > 2130 | > 3330 | > 4950 | 1 | Cc1cc(COc2ccc(NC(=O)[C@H]3CN(CC4CC4)CC[C@@H]3C(=O)NO)cc2)c2ccccc2n1 |  |
|  | 400 | > 2130 | > 3330 | > 4950 | 1 | Cc1cc(COc2ccc(NC(=O)[C@@H]3[C@@H](C(=O)NO)CCCN3CC3CC3)cc2)c2ccccc2n1 |  |
|  | 1360 | 306 | 656 | > 4950 | 0.48 | Cc1cc(COc2ccc(NC(=O)[C@H]3CCN(S(C)(=O)=O)C[C@@H]3C(=O)NO)cc2)c2ccccc2n1 |  |
|  | 3400 | > 2130 | > 3330 | > 4950 | 3 | Cc1cc(OCc2ccc(NC(=O)[C@H]3CCN(C(=O)c4ccco4)C[C@@H]3C(=O)NO)cc2)c2ccccc2n1 |  |
|  | 1300 | > 2130 | > 3330 | > 4950 | 1 | O=C(NO)[C@H]1CN(C(=O)C2CC2)CC[C@@H]1C(=O)Nc1ccc(OCc2ccnc3ccccc23)cc1 |  |
|  | 2600 | > 2130 | > 3330 | > 4950 | 3.2 | CC(=O)N1CC[C@H](C(=O)Nc2ccc(COc3ccnc4cc(C(F)(F)F)ccc34)cc2)[C@@H](C(=O)NO)C1 |  |
|  | > 50000 | > 2130 | > 3330 | > 4950 |  | O=C(NO)[C@H]1CCCC[C@@H]1C(=O)Nc1ccc(COc2ccnc3ccccc23)cc1 |  |
|  | 570 | 767 | 1110 | > 4950 | 0.28 | COC(=O)N1CC[C@H](C(=O)Nc2ccc(OCc3cc(C)nc4ccccc34)cc2)[C@@H](C(=O)NO)C1 |  |
| > 10000 | 1200 | > 2130 | > 3330 | > 4950 | 1.2 | Cc1cc(COc2ccc(NC(=O)[C@H]3CCN(C(C)C)C[C@@H]3C(=O)NO)cc2)c2ccccc2n1 |  |
|  | 330 | > 2130 | > 3330 | > 4950 | 0.26 | CCCC(=O)N1CC[C@H](C(=O)Nc2ccc(OCc3cc(C)nc4ccccc34)cc2)[C@@H](C(=O)NO)C1 |  |
|  | 560 | > 2130 | > 3330 | > 4950 | 1 | CC(=O)N1CC[C@H](C(=O)Nc2ccc(COc3ccnc4ccccc34)cc2)[C@@H](C(=O)NO)C1 |  |
| > 10000 | 4300 | > 2130 | > 3330 | > 4950 | 1.5 | Cc1cc(COc2ccc(NC(=O)[C@H]3CCNC[C@@H]3C(=O)NO)cc2)c2ccccc2n1 |  |
|  | 700 | > 2130 | > 3330 | > 4950 | 0.8 | O=C(NO)[C@H]1CN(C(=O)c2ccco2)CC[C@@H]1C(=O)Nc1ccc(COc2ccnc3ccccc23)cc1 |  |
|  | 100 | > 2130 | > 3330 | > 4950 | 5 | Cc1cc(COc2ccc(NC(=O)[C@H]3CN(C)CC[C@@H]3C(=O)NO)cc2)c2ccccc2n1 |  |
|  | 20 | > 2130 | > 3330 | > 4950 | 6.2 | Cc1cc(COc2ccc(NC(=O)[C@@H]3[C@@H](C(=O)NO)CCCN3C)cc2)c2ccccc2n1 |  |

| Structure (SMILES) | solubility [1] [µg/mL] | IC50 (Homo sapiens) [nM] | Ki [2] [nM] | Ki [3] [nM] | Ki (Interstitial collagenase) [nM] | IC50 [4] [nM] | Papp (Caco-2) |
| --- | --- | --- | --- | --- | --- | --- | --- |
| Cc1cc(COc2ccc(NC(=O)[C@H]3CCN(C4CCC4)C[C@@H]3C(=O)NO)cc2)c2ccccc2n1 | > 10000 | 1100 | > 2130 | > 3330 | > 4950 | 1.6 |  |
| Cc1cc(COc2ccc(NC(=O)[C@H]3CCN(C(=O)C4CC4)C[C@@H]3C(=O)NO)cc2)c2ccccc2n1 | 50 (≈ 99.5 µM) | 390 | > 1660 | > 2450 | > 4950 | 0.45 | 0.2 10e-6 cm s-1 |
| Cc1cc(COc2ccc(NC(=O)[C@H]3CCN(S(=O)(=O)c4cn(C)cn4)C[C@@H]3C(=O)NO)cc2)c2ccccc2n1 |  | 1500 | 366 | 1000 | > 4950 | 0.31 |  |
| O=C(NO)[C@H]1CN(C(=O)C2CC2)CC[C@@H]1C(=O)Nc1ccc(COc2ccnc3ccccc23)cc1 |  | 710 | > 2130 | > 3330 | > 4950 | 2 |  |
| Cc1cc(COc2ccc(NC(=O)[C@H]3CN(Cc4nccs4)CC[C@@H]3C(=O)NO)cc2)c2ccccc2n1 |  | 560 | > 2130 | > 3330 | > 4950 | 0.8 |  |
| Cc1cc(COc2ccc(NC(=O)[C@H]3CCN(C(=O)OC4CC4)C[C@@H]3C(=O)NO)cc2)c2ccccc2n1 |  | 700 | 209 | 642 | > 4950 | 0.83 |  |
| Cc1cc(COc2ccc(NC(=O)[C@H]3NCCC[C@@H]3C(=O)NO)cc2)c2ccccc2n1 |  | 120 | > 2130 | > 3330 | > 4950 | 1 |  |
| Cc1cc(COc2ccc(NC(=O)[C@H]3CCN(C(=O)c4ccco4)C[C@@H]3C(=O)NO)cc2)c2ccccc2n1 | 10 (≈ 18.9 µM) | 170 | > 465 | > 1010 | > 4950 | 0.066 | 0.1 10e-6 cm s-1 |
| Cc1cc(COc2ccc(NC(=O)[C@H]3CCN(C(=O)OCc4nccs4)C[C@@H]3C(=O)NO)cc2)c2ccccc2n1 |  | 450 | 768 | 1540 | > 4950 | < 0.3 |  |
| Cc1cc(COc2ccc(NC(=O)[C@H]3CCN(C(=O)OCc4cscn4)C[C@@H]3C(=O)NO)cc2)c2ccccc2n1 |  | 530 | 296 | 476 | > 4950 | < 0.3 |  |
| Cc1cc(COc2ccc(NC(=O)[C@H]3CN(C(=O)c4ccco4)CC[C@@H]3C(=O)NO)cc2)c2ccccc2n1 | < 100 | 1300 | > 2130 | > 3330 | > 4950 | < 0.3 | 0.2 10e-6 cm s-1 |
